Patent US7365231B2, “Compound with antitumor activity and preparation method therefor” (National Taiwan University of Science & Technology, priority 2005, dated 2008)

Assays:
Experiment in all cases: NCI panel growth inhibition, sulforhodamine B
Assay type in all cases: cell-based
786-0 = settings: Homo sapiens; 786-0, Renal cancer; drug for last 48 h of 72 h
Source text: (§1) Comparison of anticancer activities of the 1,3-substituted adamantane derivatives, 1,3-bis(4-aminophenyl)adamantane (1,3-DPANH2), 1,3-bis(4-(4-aminophenoxy)phenyl)adamantane (1,3-DPAONH2), 1,3-bis(4-(4-amino-3-hydroxy)phenyl)adamantane (1,3-DPA/OH/NH2) and 1,3-bis(4-(4-amino-2-trifluoromethylphenoxy)phenyl)adamantane (1,3-DPA/CF3/NH2) as shown in FIG. 1 were synthesized in the present invention. Those compounds were submitted to the National Cancer Institute for anticancer assay in culture against a standard panel of cell lines. […] To further confirm that the different substituents (CF3 and OH) on the phenyl ring of 1,3-DPAONH2 affect the growth inhibition of cancer cells. […] The transformations of 1,3-DPAONH2 to 1,3-DPA/OH/NH2 led to a remarked enhancement of anticancer activity toward all the tested cancer lines. The role of the OH group at the ortho position of the NH2 on growth inhibition is remarkable. In addition, one compound (1,3-DPA/OH/NH2) was confirmed to have an IC50 of <1 μM against one of the cells (BT-549 breast carcinoma). Comparison of anticancer activities of 1,3-substituted diaminophenyladamantane derivatives, the following order of potency against the tested cancer lines was observed: 1,3-DPA/OH/NH2>1,3-DPAONH2>1,3-DPANH2>1,3-DPA/CF3/NH2.

A498 = settings: Homo sapiens; A498, Renal cancer; drug for last 48 h of 72 h
Source text: as §1

A549/ATCC = settings: Homo sapiens, NSCLC, drug for last 48 h of 72 h
Source text: as §1

ACHN = settings: Homo sapiens, Renal cancer, drug for last 48 h of 72 h
Source text: as §1

CAKI-1 = settings: Homo sapiens; CAKI-1, Renal cancer; drug for last 48 h of 72 h
Source text: as §1

CCRF-CEM = settings: Homo sapiens, Leukemia, drug for last 48 h of 72 h
Source text: as §1

COLO 205 = settings: Homo sapiens; COLO 205, Colon cancer; drug for last 48 h of 72 h
Source text: as §1

EKVX = settings: Homo sapiens, NSCLC, drug for last 48 h of 72 h
Source text: as §1

HCT-116 = settings: Homo sapiens; HCT-116, Colon cancer; drug for last 48 h of 72 h
Source text: as §1

HL-60(TB) = settings: Homo sapiens, Leukemia, drug for last 48 h of 72 h
Source text: as §1

IGROV1 = settings: Homo sapiens, IGROV-1; IGROV1, Ovarian cancer; drug for last 48 h of 72 h
Source text: as §1

K-562 = settings: Homo sapiens, K562; K-562, Leukemia; drug for last 48 h of 72 h
Source text: as §1

KM12 = settings: Homo sapiens, KM12, KM12, Colon cancer; drug for last 48 h of 72 h
Source text: as §1

M14 = settings: Homo sapiens; M14, Melanoma; drug for last 48 h of 72 h
Source text: as §1

MCF-7 = settings: Homo sapiens, MCF7; MCF-7, Breast cancer; drug for last 48 h of 72 h
Source text: as §1

MDA-MB-231 = settings: Homo sapiens; MDA-MB-231, Breast cancer; drug for last 48 h of 72 h
Source text: as §1

MDA-N = settings: Homo sapiens, Breast cancer, drug for last 48 h of 72 h
Source text: as §1

NCI-H226 = settings: Homo sapiens; NCI-H226, NSCLC; drug for last 48 h of 72 h
Source text: as §1

NCI-H23 = settings: Homo sapiens; NCI-H23, NSCLC; drug for last 48 h of 72 h
Source text: as §1

NCI-H522 = settings: Homo sapiens; NCI-H522, NSCLC; drug for last 48 h of 72 h
Source text: as §1

OVCAR-4 = settings: Homo sapiens; OVCAR-4, Ovarian cancer; drug for last 48 h of 72 h
Source text: as §1

OVCAR-8 = settings: Homo sapiens; OVCAR-8, Ovarian cancer; drug for last 48 h of 72 h
Source text: as §1

PC-3 = settings: Homo sapiens; PC-3, Prostate cancer; drug for last 48 h of 72 h
Source text: as §1

SF-268 = settings: Homo sapiens; SF-268, CNS cancer; drug for last 48 h of 72 h
Source text: as §1

SK-MEL-28 = settings: Homo sapiens; SK-MEL-28, Melanoma; drug for last 48 h of 72 h
Source text: as §1

SN12C = settings: Homo sapiens, Renal cancer, drug for last 48 h of 72 h
Source text: as §1

SNB-19 = settings: Homo sapiens; SNB-19, CNS cancer; drug for last 48 h of 72 h
Source text: as §1

SW-620 = settings: Homo sapiens; SW-620, Colon cancer; drug for last 48 h of 72 h
Source text: as §1

TK-10 = settings: Homo sapiens; TK-10, Renal cancer; drug for last 48 h of 72 h
Source text: as §1

UACC-257 = settings: Homo sapiens; UACC-257, Melanoma; drug for last 48 h of 72 h
Source text: as §1

UACC-62 = settings: Homo sapiens; UACC-62, Melanoma; drug for last 48 h of 72 h
Source text: as §1

Row | SMILES | IC50 (A498) | IC50 (ACHN) | IC50 (CAKI-1) | IC50 (EKVX) | IC50 (HCT-116) | IC50 (HL-60(TB)) | IC50 (IGROV1) | IC50 (K-562) | IC50 (M14) | IC50 (MCF-7) | IC50 (MDA-MB-231) | IC50 (MDA-N) | IC50 (NCI-H226) | IC50 (NCI-H23) | IC50 (OVCAR-4) | IC50 (OVCAR-8) | IC50 (SF-268) | IC50 (SK-MEL-28) | IC50 (SN12C) | IC50 (SNB-19) | also measured
1 | Nc1ccc(Oc2ccc(C3(c4ccc(Oc5ccc(N)c(O)c5)cc4)C4CC5CC(C4)CC3C5)cc2)cc1O [DPA, 2,2-bis(4-(4-amino-3-hydroxyphenoxy)phenyl)adamantane] | 4.67 µM | 1.78 µM | 2.32 µM | 2.63 µM | 1.58 µM | 2.05 µM | 1.75 µM | 1.98 µM | 1.69 µM | 1.93 µM | 1.82 µM | 2.14 µM | 1.94 µM | 1.84 µM | 3.07 µM | 1.68 µM | 1.62 µM | 1.68 µM | 1.83 µM | 3.01 µM | IC50 (786-0): 1.88 µM; IC50 (A549/ATCC): 1.94 µM; IC50 (CCRF-CEM): 3.08 µM; IC50 (COLO 205): 0.484 µM; IC50 (KM12): 2.02 µM; IC50 (NCI-H522): 1.6 µM; IC50 (PC-3): 1.6 µM; IC50 (SW-620): 1.63 µM; IC50 (TK-10): 2.16 µM; IC50 (UACC-257): 2.32 µM; IC50 (UACC-62): 3.21 µM
2 | Nc1ccc(C2(c3ccc(N)cc3)C3CC4CC(C3)CC2C4)cc1 [2,2-DPANH2, 2,2-bis(4-aminophenyl)adamantane] | 21 µM | 18.6 µM | 15 µM | 16.4 µM | 20.9 µM | 19.2 µM | 9.6 µM | 10.3 µM | 14.9 µM | 19.4 µM | 17.4 µM | 18.6 µM | 12.4 µM | 19.9 µM | 14.3 µM | 7.73 µM | 1.57 µM | 14.9 µM | 18.6 µM | 14.6 µM | IC50 (CCRF-CEM): 3.76 µM; IC50 (NCI-H522): 15.6 µM; IC50 (PC-3): 14.9 µM; IC50 (SW-620): 11.4 µM; IC50 (TK-10): 18 µM; IC50 (UACC-257): 19.2 µM; IC50 (UACC-62): 16.3 µM
3 | Nc1ccc(C23CC4CC(C2)CC(c2ccc(N)cc2)(C4)C3)cc1 [1,3-DPANH2, 1,3-bis(4-aminophenyl)adamantane] | 15.7 µM | 41.1 µM | > 100 µM | 36.6 µM | 44.3 µM | 30.9 µM | > 100 µM | 14.6 µM | 37.1 µM | 31.9 µM | 19.6 µM | 37.7 µM | 11.5 µM | 59.6 µM | 10.2 µM | 85.1 µM | 45.2 µM | 15 µM | 25.1 µM | 37.8 µM | IC50 (786-0): 38.5 µM; IC50 (A549/ATCC): > 100 µM; IC50 (CCRF-CEM): 15.7 µM; IC50 (COLO 205): 2.3 µM; IC50 (KM12): > 100 µM; IC50 (SW-620): 3.14 µM; IC50 (TK-10): > 100 µM; IC50 (UACC-257): 75.5 µM; IC50 (UACC-62): 29 µM
4 | Nc1ccc(Oc2ccc(C34CC5CC(C3)CC(c3ccc(Oc6ccc(N)c(O)c6)cc3)(C5)C4)cc2)cc1O [1,3-DPA/OH/NH2, 1,3-bis-(4-(4-amino-3-hydroxyphenoxy)phenyl)adamantane] | 4.54 µM | 1.61 µM | 1.82 µM | 1.68 µM | 1.39 µM | 2.12 µM | 1.38 µM | 3.46 µM | 1.59 µM | 1.85 µM | 1.62 µM | 1.58 µM | 5.05 µM | 1.86 µM | 2.02 µM | 2.03 µM | 1.16 µM | 2.74 µM | 1.74 µM | 1.31 µM | IC50 (786-0): 2.83 µM; IC50 (A549/ATCC): 1.52 µM; IC50 (COLO 205): 1.84 µM; IC50 (KM12): 1.72 µM; IC50 (NCI-H522): 1.4 µM; IC50 (PC-3): 1.94 µM; IC50 (SW-620): 2.89 µM; IC50 (TK-10): 5.57 µM; IC50 (UACC-257): 2.23 µM; IC50 (UACC-62): 2.65 µM
